Data on ten compounds can be found in patent publication US20240246916A1, “7-NITRO-8-HYDROXYQUINOLINE DERIVATIVES, PREPARATION METHOD THEREFORE AND MEDICAL USE THEREOF” (Jiangsu Yahong Meditech Co., Ltd., priority 2021, published 2024).

Common to all, as to type: cell-based
The test system of experiment [1] is Bladder cancer cell line UM-UC-3. The experiment can be described thus: Inhibitory activity on cancer cells, CellTiter-Glo viability, UM-UC-3. As to conditions: Homo sapiens, UMUC3, 72 hours treatment. A digest of the protocol:
(§1)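 HUVEC seeded at 2000, UM-UC-3 and RM-1 at 3000, LNCaP at 5000 cells/well, each in its own medium, 24 h before dosing. Compounds: 8-point 2.5-fold dilutions from 100 μmol, 72 h at 37 °C, 5% CO2. CellTiter-Glo luminescence; IC50 from growth-inhibition curves.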
(ATP-based viability assays read luminescence as a measure of living cells.)

Experiment [2] deals with Acinetobacter baumannii (carbapenem-resistant clinical isolates; ATCC19606). In words: MIC by micro broth dilution (CLSI), Acinetobacter baumannii. To be noted: for MIC50 / MIC90: ATCC19606, Clinical strain; for MIC50 / MIC90 / MIC: Acinetobacter baumannii; for MIC50: read-out: MIC50; for MIC90: read-out: MIC90; for MIC: Standard strain ATCC19606, read-out: MIC; for inhibitory effect against Acinetobacter baumannii compared with the reference drug nitroxoline: MIC comparison. A digest of the protocol: (§2)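 Compounds were dissolved in DMSO and tested at 128 to 0.06 mg/L in cation-adjusted Mueller-Hinton broth. Overnight cultures were set to 0.5 McFarland, diluted 100-fold to a final 10^5 CFU/mL, and incubated at 35±2° C for 20 hours in air. Results were interpreted by CLSI 2019 M100 criteria.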

Experiment [3] deals with Mouse prostate cancer cell line RM1. The experiment can be described thus: Inhibitory activity on cancer cells, CellTiter-Glo viability, RM1. As to conditions: 72 hours treatment. In a few lines:
as §1

Experiment [4] has as its system Prostate cancer cell line LNcaP. The experiment can be described thus: Inhibitory activity on cancer cells, CellTiter-Glo viability, LNcaP. To be noted: Homo sapiens, 72 hours treatment. In a few lines: as §1
For experiment [5], the system named is Escherichia coli (carbapenem-resistant clinical isolate; ATCC25922). The experiment can be described thus: MIC by micro broth dilution (CLSI), Escherichia coli. As to conditions: for MIC50 / MIC90: ATCC25922, Clinical strain; for MIC50 / MIC90 / MIC: Escherichia coli; for MIC50: read-out: MIC50; for MIC90: read-out: MIC90; for MIC: Standard strain ATCC25922, read-out: MIC. A digest of the protocol:
as §2
For orientation: Dilution methods test growth across graded concentrations, often in twofold steps.

For experiment [6], the system named is Staphylococcus aureus (methicillin-resistant and sensitive clinical isolates; ATCC29213). In words: MIC by micro broth dilution (CLSI), Staphylococcus aureus. To be noted: for MIC50 / MIC90: Clinical strain; for MIC50: read-out: MIC50; for MIC90: read-out: MIC90; for MIC: Standard strain ATCC29213, read-out: MIC. A digest of the protocol: as §2
Experiment [7] deals with Endothelial cell line HUVEC. The experiment can be described thus: Inhibitory activity on cells, CellTiter-Glo viability, HUVEC. To be noted: Homo sapiens, 72 hours treatment. In a few lines:
as §1

Values after ≈ are worked out from the molar mass of the structure shown.

Usually IC50 stands for the point on the concentration scale where inhibition reaches its midpoint. High values mean a need for much substance, low ones inhibition by little substance. Broadly, the MIC50 is an inhibitory concentration at the 50% level, which refers to growth in some studies and to a panel of isolates in others. Usually MIC90 stands for an inhibitory concentration at the 90% level, which refers to growth in some studies and to a panel of isolates in others. A word on the MIC: it is the least concentration at which growth counts as inhibited.

`O=[N+]([O-])c1ccc2c(C(F)(F)F)ccnc2c1O` [Example 62, 7-Nitro-4-trifluoromethylquinolin-8-ol]: the IC50 in experiment [1] is 11.2 µM; in experiment [3], 4.82 µM; in experiment [4], 2.49 µM; in experiment [7], 3.54 µM. In addition, the MIC50 in experiment [2] is 4 µg/mL (≈ 15.5 µM); in experiment [5] it was 8 µg/mL (≈ 31 µM); in experiment [6], 2 µg/mL (≈ 7.75 µM). Besides, the MIC90 in experiment [2] stood at 4 µg/mL (≈ 15.5 µM); in experiment [5], 8 µg/mL (≈ 31 µM); in experiment [6] it was 4 µg/mL (≈ 15.5 µM). In addition, the MIC in experiment [2] was 4 µg/mL (≈ 15.5 µM); in experiment [5] it was 4 µg/mL (≈ 15.5 µM); in experiment [6], 2 µg/mL (≈ 7.75 µM). For the same compound, the “inhibitory effect against Escherichia coli compared with the reference drug nitroxoline” value in experiment [5] (MIC comparison) is “comparable to that of the reference drug nitroxoline”.
Take `O=[N+]([O-])c1cc(Cl)c2c(C3CCCCC3)ccnc2c1O` [Example 64, 5-Chloro-4-cyclohexyl-7-nitroquinolin-8-ol]: the IC50 worked out at 1.24 µM in experiment [1], 0.86 µM in experiment [3], 0.22 µM in experiment [4] and 0.44 µM in experiment [7]. For the same compound, the values for the MIC50 in experiment [2], in experiment [5] and in experiment [6] were greater than 128 µg/mL, greater than 128 µg/mL and 0.5 µg/mL (≈ 1.63 µM), respectively. For the same compound, the MIC90 in experiment [2] is greater than 128 µg/mL; in experiment [5], greater than 128 µg/mL; in experiment [6] it was 1 µg/mL (≈ 3.26 µM). The minimal inhibitory concentration (MIC) is greater than 128 µg/mL in experiment [2], greater than 128 µg/mL in experiment [5] and 0.5 µg/mL (≈ 1.63 µM) in experiment [6].
Regarding `CC1CCCN(c2ccnc3c(O)c([N+](=O)[O-])cc(Cl)c23)C1` (stereo not shown) [Example 66, 5-Chloro-4-(3-methylpiperidin-1-yl)-7-nitroquinolin-8-ol], the half-inhibitory concentration (IC50) in experiment [1] was found to be 5.43 µM; in experiment [3], 4.29 µM; in experiment [4], 1.36 µM; in experiment [7], 4.54 µM. Also, the MIC50 in experiment [2] was greater than 128 µg/mL; in experiment [5], greater than 128 µg/mL; in experiment [6], 1 µg/mL (≈ 3.11 µM). Further, the MIC90 in experiment [2] is greater than 128 µg/mL; in experiment [5], greater than 128 µg/mL; in experiment [6] it was 1 µg/mL (≈ 3.11 µM). The MIC was greater than 128 µg/mL in experiment [2], greater than 128 µg/mL in experiment [5] and 1 µg/mL (≈ 3.11 µM) in experiment [6].
In the case of `Cl.O=[N+]([O-])c1cc(Cl)c2c(OCc3ccccc3)ccnc2c1O` [Example 67, 4-(benzyloxy)-5-chloro-7-nitroquinolin-8-ol hydrochloride], the IC50 was determined as 9.28 µM in experiment [1], 13.2 µM in experiment [3], 8.68 µM in experiment [4] and 3.23 µM in experiment [7]. The MIC50 in experiment [2] is greater than 128 µg/mL; in experiment [5], greater than 128 µg/mL; in experiment [6], 1 µg/mL. Besides, the MIC90 in experiment [2] was greater than 128 µg/mL; in experiment [5] it was greater than 128 µg/mL; in experiment [6], 64 µg/mL. Further, the values for the MIC in experiment [2], in experiment [5] and in experiment [6] were greater than 128 µg/mL, greater than 128 µg/mL and 2 µg/mL, respectively.
For `O=[N+]([O-])c1cc(F)c2c(Cl)ccnc2c1O` [Example 68, 4-Chloro-5-fluoro-7-nitroquinolin-8-ol], the IC50 in experiment [1] was 17.5 µM; in experiment [3], 5.19 µM; in experiment [4], 5.38 µM; in experiment [7], 10 µM. The MIC50 in experiment [2] came out at 4 µg/mL (≈ 16.5 µM); in experiment [5], 8 µg/mL (≈ 33 µM); in experiment [6] it was 2 µg/mL (≈ 8.24 µM). Further, the MIC90 in experiment [2] amounted to 8 µg/mL (≈ 33 µM); in experiment [5], 32 µg/mL (≈ 132 µM); in experiment [6], 4 µg/mL (≈ 16.5 µM). Further, the minimum inhibitory concentration (MIC) in experiment [2] was determined as 2 µg/mL (≈ 8.24 µM); in experiment [5] it was 8 µg/mL (≈ 33 µM); in experiment [6], 4 µg/mL (≈ 16.5 µM). For the same compound, the “inhibitory effect against Acinetobacter baumannii compared with the reference drug nitroxoline” value in experiment [2] is on record as “comparable to that of the reference drug nitroxoline”.
`O=[N+]([O-])c1cc(F)c2c(N3CCC(F)(F)CC3)ccnc2c1O` [Example 69, 4-(4,4-Difluoropiperidin-1-yl)-5-fluoro-7-nitroquinolin-8-ol]: the half-maximal inhibitory concentration (IC50) in experiment [1] was determined as 4.81 µM; in experiment [3], 2.23 µM; in experiment [4] it was 1.33 µM; in experiment [7], 2.67 µM. For the same compound, the MIC50 in experiment [2] was greater than 128 µg/mL; in experiment [5], greater than 128 µg/mL; in experiment [6] it was 2 µg/mL (≈ 6.11 µM). Besides, the MIC90 in experiment [2] was greater than 128 µg/mL; in experiment [5], greater than 128 µg/mL; in experiment [6], 2 µg/mL (≈ 6.11 µM). The results for the MIC in experiment [2], in experiment [5] and in experiment [6] were greater than 128 µg/mL, greater than 128 µg/mL and 4 µg/mL (≈ 12.2 µM), respectively.
Take `O=[N+]([O-])c1cc(F)c2c(N3CCC(C(F)(F)F)CC3)ccnc2c1O` [Example 70, 5-Fluoro-7-nitro-4-(4-(trifluoromethyl)piperidin-1-yl)quinolin-8-ol]: the IC50 in experiment [1] was 5.28 µM; in experiment [3], 2.62 µM; in experiment [4], 0.96 µM; in experiment [7] it was 2.78 µM. Moreover, the MIC50 in experiment [2] is greater than 128 µg/mL; in experiment [5], greater than 128 µg/mL; in experiment [6] it was 2 µg/mL (≈ 5.57 µM). Moreover, the MIC90 in experiment [2] is greater than 128 µg/mL; in experiment [5], greater than 128 µg/mL; in experiment [6], 4 µg/mL (≈ 11.1 µM). Also, the values for the MIC in experiment [2], in experiment [5] and in experiment [6] were greater than 128 µg/mL, greater than 128 µg/mL and 4 µg/mL (≈ 11.1 µM), respectively.
As to `CCOC(=O)C1CCN(c2ccnc3c(O)c([N+](=O)[O-])cc(F)c23)CC1` [Example 71, Ethyl 1-(5-fluoro-8-hydroxy-7-nitroquinolin-4-yl)piperidine-4-carboxylate], the IC50 in experiment [1] stood at 6.8 µM; in experiment [3], 2.51 µM; in experiment [4], 1.53 µM; in experiment [7], 2.7 µM. Also, the MIC50 in experiment [2] was greater than 128 µg/mL; in experiment [5], greater than 128 µg/mL; in experiment [6] it was 2 µg/mL (≈ 5.5 µM). The MIC90 is greater than 128 µg/mL in experiment [2], greater than 128 µg/mL in experiment [5] and 4 µg/mL (≈ 11 µM) in experiment [6]. Besides, the figures for the MIC in experiment [2], in experiment [5] and in experiment [6] were greater than 128 µg/mL, greater than 128 µg/mL and 8 µg/mL (≈ 22 µM), respectively.
With `O=[N+]([O-])c1cc(F)c2c(OCC3CC3)ccnc2c1O` [Example 72, 4-(Cyclopropylmethoxy)-5-fluoro-7-nitroquinolin-8-ol], the IC50 in experiment [1] was 6.28 µM; in experiment [3], 3.03 µM; in experiment [4], 1.89 µM; in experiment [7], 2.65 µM. Besides, the MIC50 in experiment [2] was greater than 128 µg/mL; in experiment [5] it was greater than 128 µg/mL; in experiment [6] it was 2 µg/mL (≈ 7.19 µM). The MIC90 was greater than 128 µg/mL in experiment [2], greater than 128 µg/mL in experiment [5] and 4 µg/mL (≈ 14.4 µM) in experiment [6]. Besides, the MIC in experiment [2] is 64 µg/mL (≈ 230 µM); in experiment [5], greater than 128 µg/mL; in experiment [6], 2 µg/mL (≈ 7.19 µM).
As to `Cl.O=[N+]([O-])c1cc(Cl)c2c(C(F)(F)F)ccnc2c1O` [Example 73, 5-chloro-7-nitro-4-(trifluoromethyl)-quinolin-8-ol hydrochloride], the IC50 is 5.04 µM in experiment [1], 2.63 µM in experiment [3], 2.31 µM in experiment [4] and 3.45 µM in experiment [7]. For the same compound, the MIC50 in experiment [2] was 8 µg/mL; in experiment [5], 8 µg/mL; in experiment [6], 1 µg/mL. In addition, the values for the MIC90 in experiment [2], in experiment [5] and in experiment [6] were 32 µg/mL, 64 µg/mL and 2 µg/mL, respectively. In addition, the MIC in experiment [2] came to 2 µg/mL; in experiment [5] it was 8 µg/mL; in experiment [6] it was 1 µg/mL. Moreover, in experiment [2], the “inhibitory effect against Acinetobacter baumannii compared with the reference drug nitroxoline” value was “comparable to that of the reference drug nitroxoline”.
